Results published in US11286233B2, “Stilbene derivatives for the treatment of CNS and other disorders” (AMBIENT PHOTONICS, INC., priority 2017, dated 2022).
pEC50: −log10 of the molar value.

How the values were obtained:
[1] = target: T1, Aβ1-42:Zn (Homo sapiens, UniProt P05067); assay: Fluorescence-based (bis-ANS) assay of Aβ1-42:Zn disaggregation; format: biochemical; conditions: Aβ1-42 15 μM, bis-ANS 15 μM, Zn 15 μM; Tris-HCl pH7.4, 26° C.; test compounds 0.227-60 μM added after plateau, read over 20 minutes; concentration reducing fluorescence by 50 percent
T1 construct: Human peptides Aβ1-42 and Amylin 8-37 were purchased; purchased China Peptide
Protocol: Human peptides Aβ1-42 and Amylin 8-37 were purchased from China Peptide and stored at −80° C. […] The device was configured to maintain 26° C., measure an excitation of 390 nm, emission of 490 nm and cutoff 475 nm with the PMT+set at Medium, 6 flashes/read at 40 second intervals with shaking 5 seconds before the first read and 3 seconds between reads. Experiments were conducted at 26° C. in a Tris-HCl buffer (50 mM, pH7.4) containing NaCl (150 mM). Aβ1-42 was solubilized in DMSO to a concentration of 1.5 mM for 5 minutes then briefly centrifuged to remove any aggregates. The soluble Aβ1-42 (15 μM) was immediately mixed ±bis-ANS (15 μM) and allowed to equilibrate for 5 minutes. Aβ aggregation was induced with the addition of ±Zn (15 μM) in H2O. […] Test compounds (0.227-60 μM in DMSO) were then added and the dose response was measured over a 20-minute period. EDTA, known to chelate Zn, was used as a positive control. Raw fluorescence was normalized to background fluorescence without Aβ and expressed as a percentage of that in control samples without Zn. All quantitative data was expressed as mean±SEM from at least 3 replicates. All statistical analysis was conducted with Prism 6 (GraphPad).

[2] = target: T2, Amylin 8-37 (Homo sapiens, UniProt P10997); assay: Fluorescence-based (bis-ANS) assay of Amylin disaggregation; format: biochemical; conditions: Amylin 8-37 15 μM, bis-ANS 15 μM; Tris-HCl pH7.4, 26° C.; aggregation 24 hours, test compounds 0.227-60 μM, read over 24 hour period; concentration reducing fluorescence by 50 percent
T2 construct: Amylin 8-37 peptide was solubilized in DMSO; purchased China Peptide
T2 sequence (P10997 41-70): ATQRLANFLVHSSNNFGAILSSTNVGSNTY
Protocol: Human peptides Aβ1-42 and Amylin 8-37 were purchased from China Peptide and stored at −80° C. Zinc sulfate heptahydrate (ZnSO4.7H2O), BisANS (4,4′-Dianilino-1,1′-binaphthyl-5,5′-disulfonic acid dipotassium salt), Epigallocatechin-3-gallate (EGCG), 9-(Dicyanovinyl)julolidine (DCVJ) and Clioquinol (CQ) were purchased from Sigma Aldrich. Ethylenediaminetetraacetic acid (EDTA) was purchased from Alfa Aesar. 2-(dimethylamino)methyl-5,7-dichloro-8-hydroxyquinoline (AC-068), structurally similar to PBT-2 was synthesized by Warner Babcock Institute for Green Chemistry, LLC.
Amylin disaggregation was assessed using a Spectramax M5 multi-mode microplate reader (Molecular Devices) using untreated black with clear bottom 96 well plates (Costar #3631). The device was configured to maintain 26° C., measure an excitation of 390 nm, emission of 490 nm and cutoff 475 nm with the PMT+set at Medium, 6 flashes/read at 5-minute intervals with shaking 5 seconds before the first read and 3 seconds between reads.
Experiments were conducted at 26° C. in a Tris-HCl buffer (50 mM, pH7.4) containing NaCl (150 mM). Amylin 8-37 peptide was solubilized in DMSO to a concentration of 1.5 mM for 5 minutes then briefly centrifuged to remove any aggregates. The soluble amylin peptide (15 μM) was immediately mixed ±bis-ANS (15 μM) and the plate sealed to prevent evaporation. Aggregation was measured by an increase in fluorescence over 24 hours. Test compounds (0.227-60 μM in DMSO) were then added and the dose response was measured over a 24 hour period. EGCG was used as a positive control. Raw fluorescence was normalized to background fluorescence without Amylin and expressed as a percentage of that in control samples. All quantitative data was expressed as mean±SEM from at least 3 replicates. All statistical analysis was conducted with Prism 6 (GraphPad). Nonlinear regression was used to calculate the concentration at which fluorescence was reduced by 50 percent (EC50), as shown in Table 2.

T1 sequence (P05067 672-713): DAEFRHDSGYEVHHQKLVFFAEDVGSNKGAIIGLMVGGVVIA

Compound | pEC50 [1] | pEC50 [2]
COc1cc(/C=C/c2ccc(N(c3ccc(C(C)(C)C)cc3)c3ccc(C(C)(C)C)cc3)cc2)c(OC)cc1C=C(C#N)C(=O)O (stereo in doubt) [PC-063, (Z)-3-[4-[(E)-2-[4-(4-tert-butyl-N-(4-tert-butylphenyl)anilino)phenyl]vinyl]-2,5-dimethoxy-phenyl]-2-cyano-prop-2-enoic Acid] | 4.51 | 5.90
N#CC(=Cc1ccc(/C=C/c2ccc(N(c3ccccc3)c3ccccc3)cc2)cc1)C(=O)O (stereo in doubt) [PC-064, (Z)-2-cyano-3-[4-[(E)-2-[4-(N-phenylanilino)phenyl]vinyl]phenyl]prop-2-enoic Acid] | 6.13 | 7.62
CN(C)Cc1ccc2c(Cl)cc(Cl)c(O)c2n1 [AC-068(PBT2), 2-(dimethylamino)methyl-5,7-dichloro-8-hydroxyquinoline, reference compound] | 5.65 | –
Oc1c(I)cc(Cl)c2cccnc12 [CQ, Clioquinol, reference compound] | 5.57 | 5.39
N#CC(C#N)=Cc1cc2c3c(c1)CCCN3CCC2 [DCVJ, 9-(Dicyanovinyl)julolidine, reference compound] | 6.27 | –
O=C(O)CN(CCN(CC(=O)O)CC(=O)O)CC(=O)O [EDTA, Ethylenediaminetetraacetic acid, reference compound] | 4.34 | –
COc1cc(/C=C(\C#N)C(=O)O)c(OC)cc1/C=C/c1ccc(-n2c3ccc(C(C)(C)C)cc3c3cc(C(C)(C)C)ccc32)cc1 [PC-066, (E)-2-cyano-3-[4-[(E)-2-[4-(3,6-ditert-butylcarbazol-9-yl)phenyl]vinyl]-2,5-dimethoxy-phenyl]prop-2-enoic Acid] | – | 5.92
N#C/C(=C/c1ccc(-c2ccc(N(c3ccccc3)c3ccccc3)cc2)o1)C(=O)O [PC-081, (Z)-2-cyano-3-[5-[4-(N-phenylanilino)phenyl]-2-furyl]prop-2-enoic Acid] | 6.47 | 6.68
CC(C)(C)c1ccc(N(c2ccc(/C=C/c3ccc4cc(C#N)c(=O)[nH]c4c3)cc2)c2ccc(C(C)(C)C)cc2)cc1 [PC-174, 7-[(E)-2-[4-(4-tert-butyl-N-(4-tert-butylphenyl)anilino)phenyl]vinyl]-2-oxo-1H-quinoline-3-carbonitrile] | 4.30 | 5.43
N#C/C(=C/c1ccc(/C=C/c2ccc(N(c3ccccc3)c3ccccc3)cc2)cc1OCC(=O)O)C(=O)O [PC-190, (Z)-3-[2-(carboxymethoxy)-4-[(E)-2-[4-(N-phenylanilino)phenyl]vinyl]phenyl]-2-cyano-prop-2-enoic Acid] | 6.19 | –
N#C/C(=C/c1ccc(/C=C/c2ccc(N(c3ccccc3)c3ccccc3)cc2)cc1OCCCCCCCC(=O)O)C(=O)O [PC-191] | 5.79 | –
N#C/C(=C/c1ccc(/C=C/c2ccc(N(c3ccccc3)c3ccccc3)cc2)cc1OCCCCCCCCCC(=O)O)C(=O)O [PC-192] | 5.55 | –
Epigallocatechin-3-gallate [EGCG, reference compound] | – | 6.07
